Test results taken from article PMC6222759, “Chemical Constituents from Scindapsus officinalis (Roxb.) Schott. and Their Anti–Inflammatory Activities” (Molecules : A Journal of Synthetic Chemistry and Natural …, 2018).

Assays:
[1] = test system: NO production in LPS-induced Raw 264.7 cells; test: Anti-inflammatory activity assay against NO production (Griess) in LPS-stimulated RAW 264.7 macrophages; type: cell-based, mouse; conditions: for IC50: Mus musculus, RAW264.7, LPS (1.0 μg/mL)-induced Raw 264.7 cells, 2 h pre-incubation, 24 h stimulation, mean ± SD, n = 3, read-out: IC50 NO (inhibitory effect on NO production); for Anti-inflammatory activity against nitric oxide production (in words): LPS-induced Raw 264.7 cells, compared with positive control dexamethasone
Description: (Raw 264.7 cells were subjected to compounds 3 and 7 with six different concentrations and incubated for 2 h firstly, and then stimulated by adding LPS for 24 h. Then, Griess reagents I and II were added to cell supernatants to detect the NO production levels. The cytotoxicity against macrophage Raw 264.7 cells of compounds 3 and 7 were investigated using the MTT method; NO: Inhibition rates of NO release (%); MTT: Inhibition rates of cell viability (%)).
The anti-inflammatory activity assay against NO production in RAW 264.7 mouse peritoneal macrophages was conducted mainly using the procedures described previously. […] After being stimulated for 24 h, 50 μL of cell supernatants were taken out from each well and mixed with an equal volume of Griess reagents I and II to detect the NO production levels by measuring absorbance at 570 nm. All experiments were performed in triplicate. The NO inhibition is calculated as the percentage reduction of LPS stimulation.

[2] = Cytotoxicity against macrophage Raw 264.7 cells (MTT assay); conditions: mouse
Description: (§1) The cytotoxicity against macrophage Raw 264.7 cells was investigated using the MTT assay. Briefly, after the Raw 264.7 cells were treated with the test compounds for 24 h, 50 μL of MTT (5 mg/mL) was added to each well, and the cells were incubated for an additional 4 h. After the formazan crystals formed, cell supernatants were removed and 100 μL of DMSO was added to dissolve the crystals. Absorbance for each well was analyzed in the same way as that for NO inhibition assay.

[3] = test system: macrophage Raw 264.7 cells; test: as above; conditions: MTT method; concentration of 20 μM
Description: as §1

Compound | IC50 [1] [µM] | inhibition at 24 h, 20 µM ([2]; Raw 264.7 macrophage cells) [%] | Anti-inflammatory activity against nitric oxide production (in words) [1] | Cell toxicity against macrophage Raw 264.7 cells (in words) [3] | inhibition at 24 h, 20 µM [2] [%]
CCCCCCOC1O[C@H](CO)[C@@H](O)[C@H](O)[C@H]1O (stereo partly drawn) [Compound 6, hexyl-O-β-D-Glucopyranoside] | > 100 | 1.2 |  |  | 
COC(=O)c1cc(O)c(O)c(O)c1 [Compound 7, methyl gallate] | 18.9 ± 0.3 |  | moderate inhibitory effects | neither showed any cell toxicity | 2.4
CC(C)=C[C@@H]1CC=C[C@]1(C)OC1O[C@H](CO)[C@@H](O)[C@H](O)[C@H]1O (relative stereo) [Compound 1, (rel)-(1R, 5R)-1-Methyl-5-(2-methylprop-1-en-1-yl)cyclopent-2-en-1-O-β-D-glucopyranoside] | > 100 | 1.8 |  |  | 
C=CCc1ccc(OC2O[C@H](CO)[C@@H](O[C@H]3[C@H](O)[C@@H](O)[C@H](OCC4(CC)CC4)O[C@@H]3CO)[C@H](O)[C@H]2O)c(OC)c1 (stereo partly drawn) [Compound 2, 2-Methoxy-4-(prop-2-enyl)-1″-(1-ethylcyclopropyl) methanol phenyl O-β-D-glucopyranosyl-(4→4)-β-D-glucopyranoside] | > 100 | -0.5 |  |  | 
O=C(O)/C=C/c1ccc(O)c(O)c1 [Compound 4, caffeic acid] | > 100 |  |  |  | 1.1

Continued, in another order:

IC50 [1] [µM] | Compound | inhibition at 24 h, 20 µM ([2]; Raw 264.7 macrophage cells) [%] | Anti-inflammatory activity against nitric oxide production (in words) [1] | Cell toxicity against macrophage Raw 264.7 cells (in words) [3] | inhibition at 24 h, 20 µM [2] [%]
> 100 | OC[C@H]1O[C@@H](OCCc2ccccc2)[C@H](O)[C@@H](O)[C@@H]1O [Compound 5, 2-phenylethyl β-D-Glucopyranoside] | 4.5 |  |  | 
2.2 ± 0.02 | C[C@@H]1C[C@H]2[C@@H]3CCC4=CC(=O)C=C[C@]4(C)[C@@]3(F)[C@@H](O)C[C@]2(C)[C@@]1(O)C(=O)CO [Dexamethasone, dexamethasone, reference compound] |  |  |  | 
12.2 ± 0.8 | COC(=O)/C=C1/C[C@H](O)[C@H](OC(=O)C=Cc2ccc(O)c(O)c2)[C@H]1O [Compound 3, (Z)-(1S,2S,5S)-2,5-Dihydroxy-3-(2-methoxy-2-oxoethylidene)cyclopentyl 3-(3,4-dihydroxyphenyl) acrylate] | 4.7 | moderate inhibitory effects | neither showed any cell toxicity | 
